Assay results taken from US10428017B2, “Modulators of the cystic fibrosis transmembrane conductance regulator protein and methods of use” (AbbVie S.à.r.l., priority 2017, dated 2019).
Read-outs that look alike come from different tables or passages of the source.

Molecular target: T1, F508delCFTR (Homo sapiens, UniProt P13569, DEL508-508)
T1 construct: expressed in transfected cells; host or cells: CFBE4lo-F508delCFTR-HRP cells (human lung derived epithelial cell line, doxycycline-inducible)
Assay: Cell Surface Expression-Horse Radish Peroxidase (CSE-HRP) Assay
Format: cell-based
Conditions: for EC50: CFBE4lo-F508delCFTR-HRP cells, 18-24 hours at 33° C.; for Emax / Maximum % activity (with co-corrector): maximum at any tested concentration (up to 20 μM), normalized to on-plate positive control (2 μM co-corrector); for Maximum % activity (with co-corrector): with co-corrector 2 μM
Method: Cell Surface Expression-Horse Radish Peroxidase (CSE-HRP) Assay
A cellular assay for measuring the F508delCFTR cell surface expression after correction with test compounds either without or with a co-corrector (2 μM of 3-[(2R,4R)-4-({[1-(2,2-difluoro-1,3-benzodioxol-5-yl)cyclopropyl]carbonyl}amino)-7-methoxy-3,4-dihydro-2H-chromen-2-yl]benzoic acid), was developed in human lung derived epithelial cell line (CFBE4lo−) (Veit G et al, (2012) Mol Biol Cell. 23(21): 4188-4202). The development was achieved by expressing the F508delCFTR mutation along with a horseradish peroxidase (HRP) in the fourth exofacial loop, and then measuring the HRP activity using luminescence readout from these cells, CFBE4lo-F508delCFTR-HRP, that were incubated overnight with the test corrector compounds, either without or with the co-corrector. For this primary assay, the CFBE4lo-F508delCFTR-HRP cells were plated in 384-well plates (Greiner Bio-one; Cat 781080) at 4,000 cells/well along with 0.5 μg/mL doxycycline to induce the F508delCFTR-HRP expression and further incubated at 37° C., 5% CO2 for 72 hours. The test compounds were then added either without or with a co-corrector at the required concentrations and further incubated for 18-24 hours at 33° C. The highest concentration tested was 20 μM with an 8-point concentration response curve using a 3-fold dilution in both the test compound without or with the co-corrector. Three replicate plates were run to determine one EC50. All plates contained negative controls (dimethyl sulfoxide, DMSO) and positive control (2 μM of 3-[(2R,4R)-4-({[1-(2,2-difluoro-1,3-benzodioxol-5-yl)cyclopropyl]carbonyl}amino)-7-methoxy-3,4-dihydro-2H-chromen-2-yl]benzoic acid) as well as on-plate concentration response of the positive control. Post incubation, the plates were washed 5× times with Dulbecco's phosphate buffered saline (DPBS), followed by the addition of the HRP substrate, luminol (50 μL), and measuring the HRP activity using luminescence readout on EnVision® Multilabel Plate Reader (Perkin Elmer; product number 2104-0010). The raw counts from the experiment were analyzed using Accelrys® Assay Explorer v3.3.
Z′ greater than 0.5 was used as passing quality control criteria for the plates.
The Z′ is defined as: 1−[3*SDPositive Control+3*SDNegative Control/Absolute(Meanpostivie Control−MeanNegative Control)] wherein “SD” is standard deviation.
The % activity measured at each of the 8 test concentrations of the test compound added either without or with a co-corrector (2 μM of 3-[(2R,4R)-4-({[1-(2,2-difluoro-1,3-benzodioxol-5-yl)cyclopropyl]carbonyl}amino)-7-methoxy-3,4-dihydro-2H-chromen-2-yl]benzoic acid) was normalized to the on-plate positive control using the following formulae: % activity(Test compound without co-corrector)=[(test compound without co-corrector response−DMSO response)/(positive control response−DMSO response)]*100 % activity(Test compound with co-corrector)=[(test compound with co-corrector response−DMSO response)/(positive control response−DMSO response)]*100
The maximum % activity achieved for the test compound either without or with a co-corrector at any tested concentration is presented in Table 1 along with the respective EC50's calculated using the following general sigmoidal curve with variable Hill slope equation (described as Model 42 in the Accelrys® Assay Explorer v3.3 software): y=(a−d)/(1+(x/c)^b)+d
General sigmoidal curve with concentration, response, top, bottom, EC50 and Hill slope. This model describes a sigmoidal curve with an adjustable baseline, a. The equation can be used to fit curves where response is either increasing or decreasing with respect to the independent variable, “x”.
“x” is a concentration of drug under test.
“a” is the maximum response, and “d” is the minimum response
“c” is the inflection point (EC50) for the curve. That is, “y” is halfway between the lower and upper asymptotes when x=c.
“b” is the slope-factor or Hill coefficient. […]

[1] = test compound without co-corrector, HRP luminescence readout, read-out: EC50 (without co-corrector)
[2] = test compound without co-corrector
[3] = with co-corrector 2 μM 3-[(2R,4R)-4-({[1-(2,2-difluoro-1,3-benzodioxol-5-yl)cyclopropyl]carbonyl}amino)-7-methoxy-3,4-dihydro-2H-chromen-2-yl]benzoic acid, read-out: EC50 (with co-corrector)

T1 sequence (P13569 with tags, fused parts or gaps DEL508-508): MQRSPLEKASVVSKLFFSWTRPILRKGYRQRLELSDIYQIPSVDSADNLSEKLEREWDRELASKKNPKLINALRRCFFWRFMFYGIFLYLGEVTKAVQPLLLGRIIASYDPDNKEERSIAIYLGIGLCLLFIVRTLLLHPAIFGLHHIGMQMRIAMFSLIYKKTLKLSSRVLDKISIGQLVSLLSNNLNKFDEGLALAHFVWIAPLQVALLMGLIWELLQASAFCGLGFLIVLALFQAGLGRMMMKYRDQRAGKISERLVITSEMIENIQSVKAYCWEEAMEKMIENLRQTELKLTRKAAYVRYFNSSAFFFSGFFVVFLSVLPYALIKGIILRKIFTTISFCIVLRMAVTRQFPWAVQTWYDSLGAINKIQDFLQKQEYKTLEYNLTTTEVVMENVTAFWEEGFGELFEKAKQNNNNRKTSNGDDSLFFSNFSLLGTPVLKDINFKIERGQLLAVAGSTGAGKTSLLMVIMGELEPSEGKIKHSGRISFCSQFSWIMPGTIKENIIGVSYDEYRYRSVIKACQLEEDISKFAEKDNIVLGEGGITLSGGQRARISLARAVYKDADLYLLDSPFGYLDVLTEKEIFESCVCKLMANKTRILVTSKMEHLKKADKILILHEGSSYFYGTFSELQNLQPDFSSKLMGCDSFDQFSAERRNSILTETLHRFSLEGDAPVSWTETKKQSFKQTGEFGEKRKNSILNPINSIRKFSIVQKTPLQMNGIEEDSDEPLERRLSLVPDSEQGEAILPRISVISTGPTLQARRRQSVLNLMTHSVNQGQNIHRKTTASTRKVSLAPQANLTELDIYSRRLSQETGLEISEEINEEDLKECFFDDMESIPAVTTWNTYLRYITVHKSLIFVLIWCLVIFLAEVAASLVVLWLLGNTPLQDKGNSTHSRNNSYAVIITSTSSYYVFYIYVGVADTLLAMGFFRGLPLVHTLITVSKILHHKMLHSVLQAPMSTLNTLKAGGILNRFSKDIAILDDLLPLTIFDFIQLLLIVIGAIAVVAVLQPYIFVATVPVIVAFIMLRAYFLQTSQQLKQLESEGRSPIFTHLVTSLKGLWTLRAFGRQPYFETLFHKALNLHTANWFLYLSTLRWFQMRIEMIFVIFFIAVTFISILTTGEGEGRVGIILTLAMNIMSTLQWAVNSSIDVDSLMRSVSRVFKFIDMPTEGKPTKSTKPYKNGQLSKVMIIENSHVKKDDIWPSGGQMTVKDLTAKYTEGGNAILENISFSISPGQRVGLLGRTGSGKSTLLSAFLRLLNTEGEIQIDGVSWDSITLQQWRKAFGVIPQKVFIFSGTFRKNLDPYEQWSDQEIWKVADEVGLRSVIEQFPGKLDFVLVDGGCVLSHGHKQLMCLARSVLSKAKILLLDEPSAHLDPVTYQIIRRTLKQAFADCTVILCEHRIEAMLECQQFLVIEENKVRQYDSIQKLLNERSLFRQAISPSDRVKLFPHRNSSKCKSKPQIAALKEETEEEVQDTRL

EC50 [1] [µM] | Emax [2] [%] | EC50 [3] [µM] | Maximum % activity (with co-corrector) | Structure (SMILES)
3 to 10 | ≥ 150 | 3 to 10 | +++ (≥350) | COc1cccc2c1C(C(=O)NS(=O)(=O)c1cccc3ccccc13)CCO2 (stereo not drawn) [Example 9, 5-methoxy-N-(naphthalene-1-sulfonyl)-3,4-dihydro-2H-1-benzopyran-4-carboxamide]
< 3 | ≥ 150 | < 3 | +++ (≥350) | CCC1(C(=O)NS(=O)(=O)c2cccc3ccccc23)CCOc2cccc(OC)c21 (stereo not drawn) [Example 10, 4-ethyl-5-methoxy-N-(naphthalene-1-sulfonyl)-3,4-dihydro-2H-1-benzopyran-4-carboxamide]
< 3 | ≥ 150 | < 3 | +++ (≥350) | COc1ccc(Br)c2c1C(C(=O)NS(=O)(=O)c1cccc3ccccc13)CCO2 (stereo not drawn) [Example 11, 8-bromo-5-methoxy-N-(naphthalene-1-sulfonyl)-3,4-dihydro-2H-1-benzopyran-4-carboxamide]
3 to 10 | ≥ 150 | 3 to 10 | +++ (≥350) | COc1c(Br)cc(Br)c2c1C(C(=O)NS(=O)(=O)c1cccc3ccccc13)CCO2 (stereo not drawn) [Example 12, 6,8-dibromo-5-methoxy-N-(naphthalene-1-sulfonyl)-3,4-dihydro-2H-1-benzopyran-4-carboxamide]
< 3 | ≥ 150 | < 3 | +++ (≥350) | COc1ccc(C2CCC2)c2c1C(C(=O)NS(=O)(=O)c1cccc3ccccc13)CCO2 (stereo not drawn) [Example 13, 8-cyclobutyl-5-methoxy-N-(naphthalene-1-sulfonyl)-3,4-dihydro-2H-1-benzopyran-4-carboxamide]
< 3 | ≥ 150 | < 3 | +++ (≥350) | COc1ccc(C2CCCC2)c2c1C(C(=O)NS(=O)(=O)c1cccc3ccccc13)CCO2 (stereo not drawn) [Example 14, 8-cyclopentyl-5-methoxy-N-(naphthalene-1-sulfonyl)-3,4-dihydro-2H-1-benzopyran-4-carboxamide]
3 to 10 | 50 to 150 | 3 to 10 | +++ (≥350) | CCC1(C(=O)NS(=O)(=O)c2cccc3ccccc23)COc2c(OC)cccc21 (stereo not drawn) [Example 15, 3-ethyl-7-methoxy-N-(naphthalene-1-sulfonyl)-2,3-dihydro-1-benzofuran-3-carboxamide]
≥ 10 | < 50 | ≥ 10 | + (<150) | Cc1ccccc1S(=O)(=O)NC(=O)C1(C)Cc2ccccc2O1 (stereo not drawn) [Example 16, 2-methyl-N-(2-methylbenzene-1-sulfonyl)-2,3-dihydro-1-benzofuran-2-carboxamide]
≥ 10 | < 50 | ≥ 10 | + (<150) | Cc1ccccc1S(=O)(=O)NC(=O)C1Cc2ccccc2O1 (stereo not drawn) [Example 17, N-(2-methylbenzene-1-sulfonyl)-2,3-dihydro-1-benzofuran-2-carboxamide]
3 to 10 | 50 to 150 | < 3 | +++ (≥350) | Cc1ccc2c(c1)C(C(=O)NS(=O)(=O)c1cccc3ccccc13)(c1ccccc1)CCO2 (stereo not drawn) [Example 18, 6-methyl-N-(naphthalene-1-sulfonyl)-4-phenyl-3,4-dihydro-2H-1-benzopyran-4-carboxamide]
3 to 10 | ≥ 150 | 3 to 10 | +++ (≥350) | O=C(NS(=O)(=O)c1cccc2ccccc12)C1(c2ccccc2)CCOc2ccc(Cl)cc21 (stereo not drawn) [Example 19, 6-chloro-N-(naphthalene-1-sulfonyl)-4-phenyl-3,4-dihydro-2H-1-benzopyran-4-carboxamide]
3 to 10 | < 50 | < 3 | ++ (≥150 and <350) | COc1cccc2c1C(C(=O)NS(=O)(=O)c1cccc3ccccc13)CO2 (stereo not drawn) [Example 20, 4-methoxy-N-(naphthalene-1-sulfonyl)-2,3-dihydro-1-benzofuran-3-carboxamide]
3 to 10 | 50 to 150 | 3 to 10 | ++ (≥150 and <350) | O=C(NS(=O)(=O)c1cccc2ccccc12)C1COc2c(Br)cccc21 (stereo not drawn) [Example 21, 7-bromo-N-(naphthalene-1-sulfonyl)-2,3-dihydro-1-benzofuran-3-carboxamide]
3 to 10 | ≥ 150 | 3 to 10 | +++ (≥350) | CCC1(C(=O)NS(=O)(=O)c2cccc3ccccc23)COc2c(Br)cccc21 (stereo not drawn) [Example 22, 7-bromo-3-ethyl-N-(naphthalene-1-sulfonyl)-2,3-dihydro-1-benzofuran-3-carboxamide]
< 3 | < 50 | < 3 | ++ (≥150 and <350) | CCC1(C(=O)NS(=O)(=O)c2cccc3ccccc23)COc2ccccc21 (stereo not drawn) [Example 23, 3-ethyl-N-(naphthalene-1-sulfonyl)-2,3-dihydro-1-benzofuran-3-carboxamide]
3 to 10 | 50 to 150 | 3 to 10 | +++ (≥350) | O=C(NS(=O)(=O)c1cccc2ccccc12)C1CCOc2ccccc21 (stereo not drawn) [Example 24, N-(naphthalene-1-sulfonyl)-3,4-dihydro-2H-1-benzopyran-4-carboxamide]
3 to 10 | < 50 | 3 to 10 | ++ (≥150 and <350) | COc1cccc2c1OCC2C(=O)NS(=O)(=O)c1cccc2ccccc12 (stereo not drawn) [Example 25, 7-methoxy-N-(naphthalene-1-sulfonyl)-2,3-dihydro-1-benzofuran-3-carboxamide]
≥ 10 | < 50 | ≥ 10 | + (<150) | CC(C)c1ccc(S(=O)(=O)NC(=O)C2(C)Cc3ccccc3O2)cc1 (stereo not drawn) [Example 26, 2-methyl-N-[4-(propan-2-yl)benzene-1-sulfonyl]-2,3-dihydro-1-benzofuran-2-carboxamide]
≥ 10 | < 50 | ≥ 10 | + (<150) | Cc1ccccc1S(=O)(=O)NC(=O)C1COc2ccc(Cl)cc21 (stereo not drawn) [Example 27, 5-chloro-N-(2-methylbenzene-1-sulfonyl)-2,3-dihydro-1-benzofuran-3-carboxamide]
≥ 10 | < 50 | ≥ 10 | + (<150) | CCCS(=O)(=O)NC(=O)C1COc2ccc(Cl)cc21 (stereo not drawn) [Example 28, 5-chloro-N-(propane-1-sulfonyl)-2,3-dihydro-1-benzofuran-3-carboxamide]
≥ 10 | < 50 | ≥ 10 | + (<150) | Cc1ccccc1S(=O)(=O)NC(=O)C1COc2ccccc21 (stereo not drawn) [Example 29, N-(2-methylbenzene-1-sulfonyl)-2,3-dihydro-1-benzofuran-3-carboxamide]
